Among the data in ChEMBL document CHEMBL1146727, “Stereodefined and polyunsaturated inhibitors of histone deacetylase based on (2E,4E)-5-arylpenta-2,4-dienoic acid hydroxyamides” (Bioorg Med Chem Lett, 2004) are IC50 values, retold here.

Broadly, the IC50 is the point on the concentration scale where inhibition reaches its midpoint.

SMILES strings stand for the structures.

In this assay the target is Histone deacetylase. In words: Inhibition of histone deacetylase (HDAC) activity in HeLa cell nuclear extract. Type of assay: cell-based, Homo sapiens.
Turning to `CC(CCC(=O)NO)Cc1ccc(NS(=O)(=O)c2ccc(Cl)cc2)cc1` (configuration not stated), the IC50 is listed as 1170 nM.
On to `O=C(CCCCc1ccc(Cl)cc1)NO`, for which the IC50 stood at 2580 nM.
Next, `COc1ccc(S(=O)(=O)Nc2ccc(/C=C(C)/C=C/C(=O)NO)cc2)cc1`: 74 nM.
Under `O=C(/C=C/C=C/c1ccccc1)NO` stands 279 nM.
The compound `COc1ccc(S(=O)(=O)Nc2ccc(/C=C/C=C/C(=O)NO)cc2)cc1` gave an IC50 of 10400 nM.
Next, `CC(/C=C/C(=O)NO)=C\c1ccc(NS(=O)(=O)c2ccccc2)cc1`: 172 nM; `O=C(/C=C/C=C/c1ccc(Cl)cc1)NO`: 252 nM.
Under `CC(/C=C/C(=O)O)=C\c1ccc(NS(=O)(=O)c2ccc(Cl)cc2)cc1` stands over 100000 nM; under `CC(/C=C/C(=O)NO)=C\c1ccc(Cl)cc1`, 302 nM.
As for `CN(C)c1ccc(/C=C/C=C/C(=O)NO)cc1`, the IC50 is given as 1700 nM.
Under `CC(/C=C/C(=O)NO)=C\c1ccc(N(C)C)cc1` stands 788 nM; under `CC(/C=C/C(=O)NO)=C\c1ccc(NS(=O)(=O)c2ccc(Cl)cc2)cc1`, 49 nM.
